ChEMBL document CHEMBL1126347, “Competitive NMDA antagonist that base their activity on a unique conformational effect” (Bioorg Med Chem Lett, 1992)

molecular target: Glutamate NMDA receptor; experiment: The compound was tested for NMDA antagonist activity against [3H]-CGS- 19755 binding in rat cortex preparation

Compound | Ki [nM]
O=C(O)[C@@H]1NCCC[C@@H]1C(O)CP(=O)(O)O (stereo not given in full) | 106
O=C(CP(=O)(O)O)[C@H]1CCCN[C@H]1C(=O)O (stereo in doubt; 15) | > 1000

Stronger by Ki, values ahead:

Ki [nM] | Compound
40 | O=C(O)[C@@H]1C[C@H](CP(=O)(O)O)CCN1 (single isomer, unassigned) [SELFOTEL]
69 | O=C(CP(=O)(O)O)[C@H]1CCCN[C@H]1C(=O)O (stereo in doubt; 1)
64 | O=C(CP(=O)(O)O)[C@H]1CCCN[C@H]1C(=O)O (stereo in doubt; 14)
